Where two headings read alike, the source gives them in different places.
What was measured:
[1] = system: human cervix carcinoma (HeLa) cells; assay: Antiproliferative assay, cell counting (Coulter Counter), HeLa; type: cell-based; conditions: read-out: IC50, inhibition of proliferation
Experimental: (§1) Human cervix carcinoma (HeLa), human colon carcinoma (HT29), human breast carcinoma (MCF-7) and human lymphoma (HL-60) cells (3–5 × 10^4 cells) and a serial (five-fold) dilution of the test compounds were added to a 96-well microtiter plate. The cells were incubated for 72–96 h (depending on the tumor cell line) at 37 °C in a humidified 5% CO2 atmosphere. At the end of the incubation period, the cells were counted in a Coulter Counter (Coulter Electronics Ltd, Harpenden Herts, UK). […] The IC50 values represent the average (±standard deviation) of at least two to four independent experiments.

[2] = system: human colon adenocarcinoma (HT29) cells; assay: Antiproliferative assay, cell counting (Coulter Counter), HT29; type: cell-based; conditions: read-out: IC50, inhibition of proliferation
Experimental: as §1

[3] = system: human breast adenocarcinoma (MCF-7) cells; assay: Antiproliferative assay, cell counting (Coulter Counter), MCF-7; type: cell-based; conditions: read-out: IC50, inhibition of proliferation
Experimental: as §1

[4] = system: human promyelocytic leukemia (HL-60) cells; assay: Antiproliferative assay, cell counting (Coulter Counter), HL-60; type: cell-based; conditions: read-out: IC50, inhibition of proliferation
Experimental: as §1

bovine brain tubulin = assay: Inhibition of tubulin polymerisation (turbidimetric tubulin assembly); type: biochemical; conditions: tubulin 10 µM, 20 min at 30 °C; read-out: Tubulin assembly IC50±SD
Experimental: (§2) To evaluate the effect of the compounds on tubulin assembly in vitro[40], varying concentrations of compounds were preincubated with 10 μM bovine brain tubulin in 0.8M monosodium glutamate (pH adjusted to 6.6 with HCl in a 2.0M stock solution) at 30 °C and then cooled to 0 °C. After addition of 0.4 mM GTP, the mixtures were transferred to 0 °C cuvettes in a recording spectrophotometer and warmed to 30 °C. Tubulin assembly was followed turbidimetrically at 350 nm. […] The capacity of the test compounds to inhibit colchicine binding to tubulin was measured as described. The reaction mixtures contained 1 μM tubulin, 5 μM [^3H]colchicine and 5 μM test compound.

[5] = system: tubulin (colchicine site); assay: Inhibition of [3H]colchicine binding to tubulin; parameters: species or system bovine; conditions: tubulin 1 µM, [3H]colchicine 5 µM, compound 5 µM
Experimental: as §2

[6] = system: U251 glioblastoma cancer cell line; parameters: method as in PMID 27343855; conditions: read-out: IC50, antiproliferative activity; cited from earlier work
[7] = Homo sapiens, reference compounds in nM
[8] = Homo sapiens, HL-60, reference compounds in nM
[9] = Homo sapiens, HT-29, HT29, 72–96 h
[10] = Homo sapiens, MCF7, MCF-7, 72–96 h

| Compound | IC50 ([1]; Homo sapiens, 72–96 h) [nM] | IC50 [2, 9] [nM] | IC50 [3, 10] [nM] | IC50 ([4]; Homo sapiens, HL-60, 72–96 h) [nM] | melting point [°C] | further results |
| --- | --- | --- | --- | --- | --- | --- |
| COc1ccc2c(/C=C/C(=O)c3cc(OC)c(OC)c(OC)c3)c[nH]c2c1 [4a, reference compound] | – | – | – | – | – | IC50 [1, 7]: 81 ± 2 nM; IC50 ([2]; Homo sapiens, HT-29, HT29, reference compounds in nM): 60 ± 3 nM; IC50 ([3]; Homo sapiens, MCF7, MCF-7, reference compounds in nM): 49 ± 4 nM; IC50 [4, 8]: 23 ± 1 nM |
| COc1ccc(/C=C\c2cc(OC)c(OC)c(OC)c2)cc1O [CA-4, combretastatin A-4, reference compound] | – | – | – | – | – | IC50 [1, 7]: 4 ± 1 nM; IC50 [4, 8]: 1 ± 0.2 nM; IC50 (bovine brain tubulin): […]; Colchicine binding % ±SD (inhibition) [5]: 98 ± 0.9% |
| COC(=O)c1[nH]c2ccccc2c1/C=C/C(=O)c1cc(OC)c(OC)c(OC)c1 [Compound 9a, (E)-Methyl 3-(3-oxo-3-(3,4,5-trimethoxyphenyl)prop-1-en-1-yl)-1H-indole-2-carboxylate] | 2000 ± 1000 | 7300 ± 1200 | 1100 ± 400 | 4400 | – | – |
| CCOC(=O)c1[nH]c2ccccc2c1/C=C/C(=O)c1cc(OC)c(OC)c(OC)c1 [Compound 9b, (E)-Ethyl 3-(3-oxo-3-(3,4,5-trimethoxyphenyl)prop-1-en-1-yl)-1H-indole-2-carboxylate] | 2100 ± 800 | 440 ± 330 | 1800 ± 1500 | – | – | – |
| COC(=O)c1[nH]c2ccc(OC)cc2c1/C=C/C(=O)c1cc(OC)c(OC)c(OC)c1 [Compound 9c, (E)-Methyl 5-methoxy-3-(3-oxo-3-(3,4,5-trimethoxyphenyl)prop-1-en-1-yl)-1H-indole-2-carboxylate] | 2400 ± 600 | 1000 ± 700 | 590 | 27000 ± 1000 | – | IC50 (bovine brain tubulin): > 20 µM; Colchicine binding % ±SD (inhibition) [5]: 5.3 ± 4% |
| COC(=O)c1c(/C=C/C(=O)c2cc(OC)c(OC)c(OC)c2)c2ccccc2n1C [Compound 9g, (E)-Methyl 1-methyl-3-(3-oxo-3-(3,4,5-trimethoxyphenyl)prop-1-en-1-yl)-1H-indole-2-carboxylate] | 69000 ± 12000 | 10000 ± 4000 | 6700 ± 3000 | 67000 ± 46000 | 147 to 149 | – |
| CCOC(=O)c1c(/C=C/C(=O)c2cc(OC)c(OC)c(OC)c2)c2ccccc2n1C [Compound 9h, (E)-Ethyl 1-methyl-3-(3-oxo-3-(3,4,5-trimethoxyphenyl)prop-1-en-1-yl)-1H-indole-2-carboxylate] | 41000 ± 11000 | 5000 ± 1400 | 8300 ± 2300 | 58000 ± 40000 | 138 to 140 | – |
| COC(=O)c1c(/C=C/C(=O)c2cc(OC)c(OC)c(OC)c2)c2cc(OC)ccc2n1C [Compound 9i, (E)-Methyl 5-methoxy-1-methyl-3-(3-oxo-3-(3,4,5-trimethoxyphenyl)prop-1-en-1-yl)-1H-indole-2-carboxylate] | 25000 ± 3000 | 22000 ± 1000 | 2700 ± 900 | 28000 ± 3000 | 150 to 151 | – |
| COC(=O)c1c(/C=C/C(=O)c2cc(OC)c(OC)c(OC)c2)c2ccc(OC)cc2n1C [Compound 9j, (E)-Methyl 6-methoxy-1-methyl-3-(3-oxo-3-(3,4,5-trimethoxyphenyl)prop-1-en-1-yl)-1H-indole-2-carboxylate] | ≥ 100000 | 31000 ± 22000 | 11000 ± 4000 | 14000 ± 10000 | 135 to 136 | – |
| CCn1c(C(=O)OC)c(/C=C/C(=O)c2cc(OC)c(OC)c(OC)c2)c2ccccc21 [Compound 9k, (E)-Methyl 1-ethyl-3-(3-oxo-3-(3,4,5-trimethoxyphenyl)prop-1-en-1-yl)-1H-indole-2-carboxylate] | 9400 ± 3100 | 6700 ± 1200 | 11000 ± 10000 | 37000 ± 1000 | 115 to 117 | – |
| CCn1c(C(=O)OC)c(/C=C/C(=O)c2cc(OC)c(OC)c(OC)c2)c2cc(OC)ccc21 [Compound 9l, (E)-Methyl 1-ethyl-5-methoxy-3-(3-oxo-3-(3,4,5-trimethoxyphenyl)prop-1-en-1-yl)-1H-indole-2-carboxylate] | 6800 ± 2600 | 10000 ± 6000 | 93000 ± 1000 | 26000 ± 15000 | 141 to 142 | – |
| CCOC(=O)c1c(/C=C/C(=O)c2cc(OC)c(OC)c(OC)c2)c2cc(OC)ccc2n1CC [Compound 9m, (E)-Ethyl 1-ethyl-5-methoxy-3-(3-oxo-3-(3,4,5-trimethoxyphenyl)prop-1-en-1-yl)-1H-indole-2-carboxylate] | 24000 ± 2000 | 14000 ± 6000 | 26000 ± 4000 | 19000 ± 10000 | 160 to 161 | – |
| CCn1c(C(=O)OC)c(/C=C/C(=O)c2cc(OC)c(OC)c(OC)c2)c2ccc(OC)cc21 [Compound 9n, (E)-Methyl 1-ethyl-6-methoxy-3-(3-oxo-3-(3,4,5-trimethoxyphenyl)prop-1-en-1-yl)-1H-indole-2-carboxylate] | 24000 ± 15000 | 19000 ± 9000 | 36000 ± 23000 | 47000 ± 11000 | 157 to 158 | – |
| COC(=O)c1c(/C=C/C(=O)c2cc(OC)c(OC)c(OC)c2)c2ccccc2n1Cc1ccccc1 [Compound 9o, (E)-Methyl 1-benzyl-3-(3-oxo-3-(3,4,5-trimethoxyphenyl)prop-1-en-1-yl)-1H-indole-2-carboxylate] | 8200 ± 1500 | 11000 ± 6000 | 71000 ± 18000 | 41000 ± 25000 | 166 to 168 | – |
| CCOC(=O)c1c(/C=C/C(=O)c2cc(OC)c(OC)c(OC)c2)c2ccccc2n1Cc1ccccc1 [Compound 9p, (E)-Ethyl 1-benzyl-3-(3-oxo-3-(3,4,5-trimethoxyphenyl)prop-1-en-1-yl)-1H-indole-2-carboxylate] | 61000 ± 41000 | 9200 ± 4700 | 50000 ± 4000 | 9000 ± 5100 | 128 to 130 | – |
| COC(=O)c1c(/C=C/C(=O)c2cc(OC)c(OC)c(OC)c2)c2cc(OC)ccc2n1Cc1ccccc1 [Compound 9q, (E)-Methyl 1-benzyl-5-methoxy-3-(3-oxo-3-(3,4,5-trimethoxyphenyl)prop-1-en-1-yl)-1H-indole-2-carboxylate] | 15000 ± 7000 | 18000 ± 10000 | 48000 ± 8000 | 39000 ± 27000 | 170 to 171 | – |
| COc1ccc2[nH]c(C)c(/C=C/C(=O)c3cc(OC)c(OC)c(OC)c3)c2c1 [compound 3] | – | – | – | – | – | IC50 [6]: > 10 µM |
| (E)-Methyl 1-benzyl-6-methoxy-3-(3-oxo-3-(3,4,5-trimethoxyphenyl)prop-1-en-1-yl)-1H-indole-2-carboxylate [Compound 9r] | – | – | – | – | – | IC50 ([1]; 72–96 h): 26000 ± 4000 nM; IC50 ([2]; HT29, 72–96 h): 27000 ± 2000 nM; IC50 ([3]; MCF-7, 72–96 h): 28000 ± 3000 nM; IC50 ([4]; HL-60, 72–96 h): 32000 ± 3000 nM |

Source: article PMC6116705, “Design, synthesis, in vitro antiproliferative activity and apoptosis-inducing studies of 1-(3′,4′,5′-trimethoxyphenyl)-3-(2′-alkoxycarbonylindolyl)-2-propen-1-one derivatives obtained by a molecular hybridisation approach” (Journal of Enzyme Inhibition and Medicinal Chemistry, 2018)
